Experimental findings from PMC9169622 (Proceedings of the National Academy of Sciences of the …, 2022) are described below.

Molecules are shown by their SMILES.

The target in assay [1] is T1, GPR126 (Homo sapiens, UniProt Q86SQ4).
T1 sequence (Q86SQ4 38-1221): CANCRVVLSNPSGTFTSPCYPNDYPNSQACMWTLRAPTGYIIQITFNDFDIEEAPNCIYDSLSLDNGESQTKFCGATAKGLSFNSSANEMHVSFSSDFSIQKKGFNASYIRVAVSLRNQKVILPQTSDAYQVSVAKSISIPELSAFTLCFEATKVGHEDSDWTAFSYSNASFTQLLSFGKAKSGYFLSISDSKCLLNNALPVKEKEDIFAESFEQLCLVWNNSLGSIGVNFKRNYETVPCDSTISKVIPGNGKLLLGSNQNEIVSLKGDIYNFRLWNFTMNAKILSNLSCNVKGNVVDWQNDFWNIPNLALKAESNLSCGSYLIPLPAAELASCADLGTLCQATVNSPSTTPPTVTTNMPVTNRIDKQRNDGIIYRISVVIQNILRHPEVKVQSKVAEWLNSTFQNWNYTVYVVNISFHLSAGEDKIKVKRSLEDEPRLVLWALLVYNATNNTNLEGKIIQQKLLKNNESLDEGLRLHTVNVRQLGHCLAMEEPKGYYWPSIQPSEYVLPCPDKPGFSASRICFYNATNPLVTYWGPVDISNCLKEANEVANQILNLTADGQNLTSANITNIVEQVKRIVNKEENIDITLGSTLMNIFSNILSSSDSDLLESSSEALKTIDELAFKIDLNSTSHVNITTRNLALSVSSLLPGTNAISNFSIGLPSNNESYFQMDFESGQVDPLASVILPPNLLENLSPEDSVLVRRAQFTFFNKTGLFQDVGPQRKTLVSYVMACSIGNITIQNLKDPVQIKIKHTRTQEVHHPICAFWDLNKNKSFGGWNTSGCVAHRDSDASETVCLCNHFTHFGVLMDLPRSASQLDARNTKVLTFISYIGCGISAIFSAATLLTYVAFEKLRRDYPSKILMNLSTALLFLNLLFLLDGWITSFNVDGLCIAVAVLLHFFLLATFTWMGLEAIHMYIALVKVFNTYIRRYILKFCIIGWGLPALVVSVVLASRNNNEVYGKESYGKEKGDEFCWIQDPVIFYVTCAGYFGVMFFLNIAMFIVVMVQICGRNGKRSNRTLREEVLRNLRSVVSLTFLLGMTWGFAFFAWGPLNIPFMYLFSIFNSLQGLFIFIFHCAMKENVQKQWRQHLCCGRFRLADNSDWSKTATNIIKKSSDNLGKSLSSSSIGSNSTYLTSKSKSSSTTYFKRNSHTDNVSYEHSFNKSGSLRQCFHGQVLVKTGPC
The experiment in a line: cell-based. Format: cell-based.

Assay [2] deals with T1, GPR126. Type of assay: cell-based.
Another assay deals with MDA-MB-231 cells. Type of assay: cell-based, human.

The term EC50 denotes the concentration that produces a half-maximal response. As for `C[C@]12CCC(=O)C=C1CC[C@@H]1[C@@H]2CC[C@@]2(C)[C@H]1CC[C@]2(O)C(=O)CO` [11-deoxycortisol], on GPR126 [1], the EC50 was 1.4 ± 0.14 µM; the “Emax compared with 126-SMP, cAMP accumulation” value is “less than one-sixth”; the “effect on intracellular cAMP accumulation” value was “weak but detectable increase”.
Turning to `C=C[C@@]1(C)CC(=O)[C@]2(O)[C@@]3(C)[C@@H](O)CCC(C)(C)[C@@H]3[C@H](O)[C@H](OC(C)=O)[C@@]2(C)O1` [Fsk, Forskolin], the “cAMP up-regulation compared to control vehicle” value on GPR126 [2] is recorded as “approximately three times”.
Turning to `COc1cc2ncnc(Nc3ccc(Oc4ccccc4)cc3)c2cc1OC` [Src-I1], the “effect of SRC inhibitor on progesterone-induced cell growth” value in the assay with MDA-MB-231 cells was “significantly suppressed”.
Consider `C[C@]12CC[C@H]3[C@@H](CCC4=CC(=O)CC[C@@]43C)[C@@H]1CC[C@@H]2O` [testosterone], for which, on GPR126 [1], the EC50 amounted to 0.8 ± 0.06 µM; the “Emax compared with 126-SMP, cAMP accumulation” value is on record as “less than one-sixth”; the “effect on intracellular cAMP accumulation” value is recorded as “weak but detectable increase”.
